Laboratory results taken from patent publication US20230083973A1, “SUBSTITUTED CYCLOPROPYL-2,2'-BIP[…], ANALOGUES THEREOF, AND METHODS USING SAME” (priority 2019, published 2023).

tested on: HBsAg; assay: HBsAg assay: inhibition of HBsAg in HepG2.2.15 cells (chemiluminescence immunoassay of supernatant); format: cell-based, hepatitis B virus; details: Hepatitis B virus, HepG2.2.15, 144 h, read-out: sAg EC50, HepG2.2.15 cells; HBsAg in supernatant at day 6 after exposure to compound; 0.5% DMSO
Procedure: Inhibition of HBsAg was determined in HepG2.2.15 cells. Cells were maintained in culture medium containing 10% fetal calf serum, […], Glutamine, penicillin/streptomycin. Cells were seeded in 96-well collagen-coated plate at a density of 30,000 cells/well. Serially diluted compounds were added to cells next day at the final DMSO concentration of 0.5%. Cells were incubated with compounds for 2-3 days, after which medium was removed. Fresh medium containing compounds was added to cells for additional 3-4 days. At day 6 after exposure of compounds, supernatant was collected, the HBsAg immunoassay (microplate-based chemiluminescence immunoassay kits, CLIA, Autobio Diagnosics Co., Zhengzhou, China, Catalog # CL0310-2) was used to determine the level of HBsAg according to manufactory instruction. Dose-response curves were generated and the EC50 value (effective concentrations that achieved 50% inhibitory effect) were determined using XLfit software. In addition, cells were seeded at a density of 5,000 cells/well for determination of cell viability in the presence and absence of compounds by using CellTiter-Glo reagent (Promega).
Table 1 illustrates EC50 values obtained by the HBsAg assay for selected compounds.

Going from COc1cc(C2CN(c3cc([C@@H]4C[C@H]4c4cnc(-c5ncccn5)nc4)cc(F)c3F)C2)ccc1F (relative stereo) [Example 215, trans-5-(2-(3,4-Difluoro-5-(3-(4-fluoro-3-methoxyphenyl)azetidin-1-yl)phenyl)cyclopropyl)-2,2′-bipyrimidine] to O[C@@H]1CN(c2cc(C3CC3c3cnc(-c4ncccn4)nc3)cc(F)c2F)C[C@H]1O (relative stereo) [Example 239, trans-(3R,4R)-1-(5-(2-([2,2′-Bipyrimidin]-5-yl)cyclopropyl)-2,3-difluorophenyl)pyrrolidine-3,4-diol], the EC50 rises from 70 nM to 110 nM (1.6-fold). The first is the more potent here.

Compared with O[C@@H]1CCN(c2cc(C3CC3c3cnc(-c4ncccn4)nc3)cc(F)c2F)C1 (single isomer, unassigned) [Example 104], Fc1cc([C@@H]2C[C@H]2c2cnc(-c3ncccn3)nc2)cc(OCCCN2CCOCC2)c1F (relative stereo) [Example 240, trans-4-(3-(5-(2-([2,2′-Bipyrimidin]-5-yl)cyclopropyl)-2,3-difluorophenoxy)propyl)morpholine] is 2.7-fold higher in EC50: 78 nM for the first, 210 nM for the second. The first is the more potent here.

Compared with Cn1cnc(COc2cc([C@@H]3C[C@H]3c3cnc(-c4ncccn4)nc3)cc(F)c2F)n1 (relative stereo) [Example 217, trans-5-(2-(3,4-Difluoro-5-((1-methyl-1H-1,2,4-triazol-3-yl)methoxy)phenyl)cyclopropyl)-2,2′-bipyrimidine], Fc1cc([C@@H]2C[C@H]2c2cnc(-c3ncccn3)nc2)cc(OCc2nccs2)c1F (relative stereo) [Example 218, trans-2-((5-(2-([2,2′-Bipyrimidin]-5-yl)cyclopropyl)-2,3-difluorophenoxy)methyl)thiazole] is 3.5-fold lower in EC50: 200 nM for the first, 57 nM for the second. The second is the more potent here.

Going from COc1cc(C2CC2c2cnc(-c3ncccn3)nc2)cnc1OC (single isomer, unassigned) [Example 183, trans-5-(2-(5,6-Dimethoxypyridin-3-yl)cyclopropyl)-2,2′-bipyrimidine] to COc1cc(C2CC2c2cnc(-c3ncccn3)nc2)c(F)cc1Cl (single isomer, unassigned) [Example 86, trans-5-(2-(4-Chloro-2-fluoro-5-methoxyphenyl)cyclopropyl)-2,2′-bipyrimidine], the EC50 falls from 910 nM to 130 nM (7-fold). The second is the more potent here.

Going from CN(C)C(=O)c1cc(C2CC2c2cnc(-c3ncccn3)nc2)ccc1Cl (single isomer, unassigned) [Example 203, trans-5-(2-([2,2′-Bipyrimidin]-5-yl)cyclopropyl)-2-chloro-N,N-dimethylbenzamide] to COc1ccc([C@@H]2C[C@H]2c2cnc(-c3ncccn3)nc2)c2cccnc12 (relative stereo) [Example 173, trans-5-(2-([2,2′-Bipyrimidin]-5-yl)cyclopropyl)-8-methoxyquinoline], the EC50 falls from 6000 nM to 540 nM (11-fold).

First: Fc1cc(F)c2nc([C@@H]3C[C@H]3c3cnc(-c4ncccn4)nc3)sc2c1 (relative stereo) [Example 270, trans-2-(2-([2,2′-Bipyrimidin]-5-yl)cyclopropyl)-4,6-difluorobenzo[d]thiazole]
Second: COCCCn1ncc2c(F)cc([C@@H]3C[C@H]3c3cnc(-c4ncccn4)nc3)cc21 (relative stereo) [Example 275, trans-6-(2-([2,2′-Bipyrimidin]-5-yl)cyclopropyl)-4-fluoro-1-(3-methoxypropyl)-1H-indazole]
The EC50 of the first is 6.7-fold higher: 500 nM for the first, 75 nM for the second.

same assay, conditions: read-out: sAg EC50; HepG2.2.15 cells; HBsAg in supernatant at day 6 after exposure to compound; 0.5% DMSO

First: COCCCn1cc2c(F)cc(C3CC3c3cnc(-c4ncccn4)nc3)cc2n1 (single isomer, unassigned) [Example 268, trans-6-(2-([2,2′-Bipyrimidin]-5-yl)cyclopropyl)-4-fluoro-2-(3-methoxypropyl)-2H-indazole]
Second: COCCCOc1cc(C2CC2c2cnc(-c3ncccn3)nc2)cc(F)c1F (single isomer, unassigned) [Example 130, trans-5-(2-(3,4-Difluoro-5-(3-methoxypropoxy)phenyl)cyclopropyl)-2,2′-bipyrimidine]
The EC50 of the first is 26-fold lower: 10 nM for the first, 260 nM for the second. The first is the more potent here.

Going from COCCOc1ccc(C2CC2c2cnc(-c3ncccn3)nc2)cc1F (single isomer, unassigned) [Example 24, trans-5-(2-(3-Fluoro-4-(2-methoxyethoxy)phenyl)cyclopropyl)-2,2′-bipyrimidine] to Fc1ccc(C2CC2c2cnc(-c3ncccn3)nc2)cc1F (single isomer, unassigned) [Example 14, trans-5-(2-(3,4-Difluorophenyl)cyclopropyl)-2,2′-bipyrimidine], the EC50 rises from 150 nM to 1000 nM (6.7-fold).

Compared with COCCCn1ncc2c(C3CC3c3cnc(-c4ncccn4)nc3)cc(F)c(F)c21 (single isomer, unassigned) [Example 266, trans-4-(2-([2,2′-Bipyrimidin]-5-yl)cyclopropyl)-6,7-difluoro-1-(3-methoxypropyl)-1H-indazole], COCCCn1cc2c(F)cc(C3CC3c3cnc(-c4ncccn4)nc3)cc2n1 (single isomer, unassigned) [Example 269, trans-6-(2-([2,2′-Bipyrimidin]-5-yl)cyclopropyl)-4-fluoro-2-(3-methoxypropyl)-2H-indazole] is 23-fold higher in EC50: 2 nM for the first, 46 nM for the second.

O[C@@H]1CCN(c2cc(C3CC3c3cnc(-c4ncccn4)nc3)cc(F)c2F)C1 (single isomer, unassigned) [Example 105] and O[C@H]1CCN(c2cc(C3CC3c3cnc(-c4ncccn4)nc3)cc(F)c2F)C1 (single isomer, unassigned) [Example 106] are within 1.5-fold of each other in EC50: 97 nM for the first, 85 nM for the second.

Going from Clc1ccc(C2CC2c2cnc(-c3ncccn3)nc2)cc1N1CCCC1 (single isomer, unassigned) [Example 199, trans-5-(2-(4-Chloro-3-(pyrrolidin-1-yl)phenyl)cyclopropyl)-2,2′-bipyrimidine] to Fc1ccc(C2CC2c2cnc(-c3ncccn3)nc2)cc1N1CCCCC1 (single isomer, unassigned) [Example 195, trans-5-(2-(4-Fluoro-3-(piperidin-1-yl)phenyl)cyclopropyl)-2,2′-bipyrimidine], the EC50 rises from 140 nM to 3000 nM (21-fold). The first is the more potent here.

First: Fc1cc(C2CC2c2cnc(-c3ncccn3)nc2)cc(-n2ccnc2)c1F (single isomer, unassigned) [Example 182, trans-5-(2-(3,4-Difluoro-5-(1H-imidazol-1-yl)phenyl)cyclopropyl)-2,2′-bipyrimidine]
Second: CC1(C)CCN(c2cc(C3CC3c3cnc(-c4ncccn4)nc3)cc(F)c2F)C1 (single isomer, unassigned) [Example 221, trans-5-(2-(3-(3,3-Dimethylpyrrolidin-1-yl)-4,5-difluorophenyl)cyclopropyl)-2,2′-bipyrimidine]
The EC50 of the first is 5-fold lower: 64 nM for the first, 320 nM for the second.

CS(=O)(=O)N1CCN(c2cc(C3CC3c3cnc(-c4ncccn4)nc3)ccc2F)CC1 (single isomer, unassigned) [Example 41, trans-5-(2-(4-Fluoro-3-(4-(methylsulfonyl)piperazin-1-yl)phenyl)cyclopropyl)-2,2′-bipyrimidine] and CN1CCN(c2cc(C3CC3c3cnc(-c4ncccn4)nc3)ccc2F)CC1 (single isomer, unassigned) [Example 188, trans-5-(2-(4-Fluoro-3-(4-methylpiperazin-1-yl)phenyl)cyclopropyl)-2,2′-bipyrimidine] are the same in EC50: 4000 nM for the first, 4000 nM for the second.

First: CN1CC[C@@H](Nc2cc(C3CC3c3cnc(-c4ncccn4)nc3)cc(F)c2F)C1 (single isomer, unassigned) [Example 231]
Second: OC1CN(c2cc(C3CC3c3cnc(-c4ncccn4)nc3)ccc2F)C1 (single isomer, unassigned) [Example 53, trans-1-(5-(2-([2,2′-Bipyrimidin]-5-yl)cyclopropyl)-2-fluorophenyl)azetidin-3-ol]
The EC50 of the first is 1.5-fold higher: 750 nM for the first, 500 nM for the second.

First: COc1cc(C2CC2c2cnc(-c3ncccn3)nc2)c(C)cc1Cl (single isomer, unassigned) [Example 52, trans-5-(2-(4-Chloro-5-methoxy-2-methylphenyl)cyclopropyl)-2,2′-bipyrimidine]
Second: COc1cc(C2CC2c2cnc(-c3ncccn3)nc2)cc(Cl)c1Cl (single isomer, unassigned) [Example 59, trans-5-(2-(3,4-Dichloro-5-methoxyphenyl)cyclopropyl)-2,2′-bipyrimidine]
The EC50 of the first is 31-fold higher: 1000 nM for the first, 32 nM for the second. The second is the more potent here.

First: COCCCOc1cc(F)c(Cl)cc1C1CC1c1cnc(-c2ncccn2)nc1 (single isomer, unassigned) [Example 155, trans-5-(2-(5-Chloro-4-fluoro-2-(3-methoxypropoxy)phenyl)cyclopropyl)-2,2′-bipyrimidine]
Second: COc1cc(C2CC2c2cnc(-c3ncccn3)nc2)ccc1Cl (single isomer, unassigned) [Example 33, trans-5-(2-(4-Chloro-3-methoxyphenyl)cyclopropyl)-2,2′-bipyrimidine]
The EC50 of the first is 97-fold higher: 3000 nM for the first, 31 nM for the second. The second is the more potent here.

Compared with Cc1cc(C2CC2c2cnc(-c3ncccn3)nc2)cc(OCC2CC2)c1Cl (single isomer, unassigned) [Example 49, trans-5-((2-(4-Chloro-3-(cyclopropylmethoxy)-5-methylphenyl)cyclopropyl)-2,2′-bipyrimidine], COc1cc(C2CC2c2ccc(-c3ncccn3)nn2)ccc1F (single isomer, unassigned) [Example 191, trans-3-(2-(4-Fluoro-3-methoxyphenyl)cyclopropyl)-6-(pyrimidin-2-yl)pyridazine] is 12-fold higher in EC50: 170 nM for the first, 2000 nM for the second.
